ChEMBL document CHEMBL1127947, “Synthesis and evaluation of n-substituted 1-(5-fluoro-2-pyrimidinyl)piperazine derivatives as potential anti-ischemic agents” (Bioorg Med Chem Lett, 1994)

Experiments:
[1] = system: Rattus norvegicus; assay: In vivo neuroprotective activity to block nitrogen (N2) lethality in male Dawley rats by ip administration at a dose of 40 mg/kg; assay type: functional; conditions: route intraperitoneal
[2] = target: 5-hydroxytryptamine receptor 2A (Rattus norvegicus, UniProt P14842); assay: In vitro binding affinity towards serotonin 5-HT2A receptor by the displacement of [3H]spiperone from rat cortical membranes; assay type: cell membranes, Membrane
Chain of 5-hydroxytryptamine receptor 2A (P14842 whole entry): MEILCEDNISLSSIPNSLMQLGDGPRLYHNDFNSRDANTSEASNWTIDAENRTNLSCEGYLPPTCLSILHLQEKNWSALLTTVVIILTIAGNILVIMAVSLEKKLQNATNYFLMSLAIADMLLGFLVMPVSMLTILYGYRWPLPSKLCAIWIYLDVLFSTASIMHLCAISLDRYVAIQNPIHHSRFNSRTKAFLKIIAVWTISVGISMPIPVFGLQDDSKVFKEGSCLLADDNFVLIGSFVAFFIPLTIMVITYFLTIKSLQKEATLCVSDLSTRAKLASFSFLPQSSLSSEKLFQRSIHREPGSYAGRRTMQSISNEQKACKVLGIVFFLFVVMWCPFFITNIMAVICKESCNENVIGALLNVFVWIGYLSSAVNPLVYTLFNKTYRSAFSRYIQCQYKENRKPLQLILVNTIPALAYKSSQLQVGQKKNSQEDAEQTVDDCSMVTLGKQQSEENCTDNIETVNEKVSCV

[3] = target: T1, 5-hydroxytryptamine receptor 1A (Rattus norvegicus, UniProt P19327); assay: In vitro binding affinity towards serotonin 5-HT1A receptor by the displacement of [3H]8-OH-DPAT from rat hippocampus; assay type: tissue-based
T1 sequence (P19327 whole entry): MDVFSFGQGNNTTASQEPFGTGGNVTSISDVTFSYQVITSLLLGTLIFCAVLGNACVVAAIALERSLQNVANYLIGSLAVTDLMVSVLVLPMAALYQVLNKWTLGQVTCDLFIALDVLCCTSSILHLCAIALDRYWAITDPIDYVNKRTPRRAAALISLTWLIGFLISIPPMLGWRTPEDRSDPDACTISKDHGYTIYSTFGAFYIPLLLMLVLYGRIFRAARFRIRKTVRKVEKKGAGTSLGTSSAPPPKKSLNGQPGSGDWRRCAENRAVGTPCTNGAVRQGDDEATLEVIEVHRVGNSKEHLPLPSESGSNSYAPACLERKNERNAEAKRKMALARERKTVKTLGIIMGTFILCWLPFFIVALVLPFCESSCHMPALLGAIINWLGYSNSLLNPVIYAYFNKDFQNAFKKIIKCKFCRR

[4] = system: Rattus norvegicus; assay: In vivo neuroprotective activity to block nitrogen (N2) lethality in male Dawley rats by ip administration at a dose of 80 mg/kg; assay type: functional; conditions: route intraperitoneal
[5] = system: Rattus norvegicus; assay: In vivo neuroprotective activity to block nitrogen (N2) lethality in male Dawley rats by ip administration at a dose of 20 mg/kg; assay type: functional; conditions: route intraperitoneal
[6] = system: Rattus norvegicus; assay: In vivo neuroprotective activity to block nitrogen (N2) lethality in male Dawley rats by ip administration at a dose of 100 mg/kg; assay type: functional; conditions: route intraperitoneal
[7] = system: Rattus norvegicus; assay: In vivo neuroprotective activity to block nitrogen (N2) lethality in male Dawley rats by ip administration at a dose of 50/100 mg/kg; assay type: functional

SMILES	Protection [1]	IC50 [2]	IC50 [3]	also measured
OC(CCCN1CCN(c2ncc(F)cn2)CC1)(c1ccc(F)cc1)C1CCCCC1 (configuration not stated)	75%	0.336 µM	0.05 µM	
O=C(NC(CCCN1CCN(c2ncc(F)cn2)CC1)c1ccc(F)cc1)c1ccc(F)cc1 (configuration not stated)	88%	0.468 µM	0.106 µM	
Fc1cnc(N2CCN(CCCCC3CCCCC3)CC2)nc1			0.315 µM	Protection [4]: 75%
Fc1ccc(OCCCN2CCN(c3ncc(F)cn3)CC2)cc1	25%	0.141 µM	0.145 µM	
O=S(=O)(NC(CCCN1CCN(c2ncc(F)cn2)CC1)c1ccc(F)cc1)c1ccc(F)cc1 (configuration not stated)		3.4 µM	1.81 µM	Protection [4]: 100%
CC(=O)NC(CCCN1CCN(c2ncc(F)cn2)CC1)c1ccc(F)cc1 (configuration not stated)	13%		0.289 µM	
CC(=O)OC(CCCN1CCN(c2ncc(F)cn2)CC1)c1ccc(F)cc1 (configuration not stated)		0.504 µM	0.046 µM	Protection [4]: 100%
O=C(OC(CCCN1CCN(c2ncc(F)cn2)CC1)c1ccc(F)cc1)c1ccccc1 (configuration not stated)			0.581 µM	Protection [4]: 63%
OC(CCCN1CCN(c2ncc(F)cn2)CC1)C1CCCCC1 (configuration not stated)	100%		0.03 µM	
O=S(=O)(NC(CCCN1CCN(c2ncc(F)cn2)CC1)C1CCCCC1)c1ccc(F)cc1 (configuration not stated)		0.76 µM		Protection [5]: 50%
O=C(NC(CCCN1CCN(c2ncc(F)cn2)CC1)C1CCCCC1)c1ccc(F)cc1 (configuration not stated)		0.76 µM		Protection [5]: 50%
O=S(=O)(NC(CCCN1CCN(c2ncc(F)cn2)CC1)c1ccc(F)c2ccccc12)c1ccc(F)cc1 (configuration not stated)	38%			
Fc1ccc(SCCCN2CCN(c3ncc(F)cn3)CC2)cc1	13%		0.129 µM	
NC(CCCN1CCN(c2ncc(F)cn2)CC1)C1CCCCC1 (configuration not stated)			0.257 µM	Protection [5]: 50%
Fc1ccc(CCCCN2CCN(c3ncc(F)cn3)CC2)cc1	75%	0.212 µM	0.071 µM	
NC(CCCN1CCN(c2ncc(F)cn2)CC1)c1ccc(F)c2ccccc12 (configuration not stated)	38%		0.345 µM	
OC(CCCN1CCN(c2ncc(F)cn2)CC1)c1ccc(F)c2ccccc12 (configuration not stated)		1.01 µM	0.562 µM	Protection [6]: 100%
O=S(=O)(CCCN1CCN(c2ncc(F)cn2)CC1)c1ccc(F)cc1	25%		0.461 µM	
Fc1cnc(N2CCN(CCCCc3ccc(F)c4ccccc34)CC2)nc1		0.59 µM	0.414 µM	Protection [5]: 100%
OC(CCCN1CCN(c2ncc(F)cn2)CC1)c1ccc(F)cc1 (configuration not stated) [BMY-14802]		1.7 µM		Protection [7]: 63%
